The subject of data set [1] is Hepatitis C virus. The data set can be described thus: Antiviral activity against Hepatitis C virus genotype 1b Con1 infected in HuH7 cells by cell based replicon assay. Particulars: genotype 1b Con1, Huh-7. It is filed as functional, Hepacivirus hominis.
A short description of data set [2]: Inhibition of human recombinant Phosphatidylinositol 4-kinase type 3-alpha expressed in Sf9 cells assessed as reduction in […] by pyruvate kinase and lactate dehydrogenase coupled assay.
Data set [3] in a line: Cytotoxicity against Hepatitis C virus genotype 1b Con1 infected human HuH7 cells after 48 hrs by MTT assay. It is filed as cell-based, Huh-7. Particulars: HuH7 cells infected with Hepatitis C virus genotype 1b Con1. On the technique in general: Tetrazolium dyes change colour on reduction, which living cells bring about.
Data set [4] relates to Hepatitis C virus. The data set can be described thus: Antiviral activity against Hepatitis C virus subtype 2a JFH-1 infected in HuH7 cells by cell based replicon assay. It is filed as functional, Hepacivirus hominis. Particulars: genotype 2a JFH-1, Huh-7. A general note: Replicon systems follow genome replication, usually without infectious particles.
A short description of data set [5]: Inhibition of PI3K (unknown origin). On the set-up: species or system Homo sapiens.
For data set [6], the system named is Hepatitis C virus. The experiment in a line: Antiviral activity against Hepatitis C virus subtype 1a infected in HuH7 cells by cell based replicon assay. To be noted: Huh-7. It is filed as functional, Hepacivirus hominis.
The nature of data set [7]: Inhibition of human recombinant Phosphatidylinositol 4-kinase type 3-beta expressed in Sf9 cells assessed as reduction in […] by pyruvate kinase and lactate dehydrogenase coupled assay.
A short description of data set [8]: Aqueous solubility at room temperature after 24 hrs by HPLC method. Particulars: aqueous medium. It is filed as physicochemical.

≈ marks a conversion by molar mass, not a printed value.

Experimental findings from ChEMBL document CHEMBL3351967, “2-Alkyloxazoles as potent and selective PI4KIIIβ inhibitors demonstrating inhibition of HCV replication” (Bioorg Med Chem Lett, 2014) are described below.

The term EC50 denotes the concentration that produces a half-maximal response. A higher EC50 goes with a need for much substance. For orientation: IC50 means the concentration that inhibits the measured activity by half. Usually CC50 stands for the concentration that lowers cell viability or growth by half. A high value points to better tolerance by the cells. Regarding `Cc1ccc(-c2oc(C3CC3)nc2C)cc1S(=O)(=O)N[C@H]1CC[C@H](O)CC1`, the EC50 with Hepatitis C virus [1] stood at 46 nM; with Hepatitis C virus [4], 375 nM; with Hepatitis C virus [6], 59 nM. In addition, the IC50 in data set [2] was more than 10000 nM; in data set [5], 6290 nM; in data set [7], 18 nM. In data set [3], this compound registered a CC50 at 48 h of more than 31000 nM.
The compound `COc1ccc(-c2oc(-c3ccncc3)nc2C)cc1S(=O)(=O)N[C@H]1CC[C@H](O)CC1` registered an EC50 in the data set on Hepatitis C virus [1] of 410 nM. The CC50 at 48 h in data set [3] is more than 31000 nM. In data set [7], the IC50 was determined as 191 nM.
Taken in the same sequence, the figures for `COc1ccc(-c2ocnc2C)cc1S(=O)(=O)N[C@H]1CC[C@H](O)CC1` were more than 10000 nM, more than 31000 nM and 1610 nM.
The solubility is the dissolved amount per volume that the medium holds. Lower therefore signals little dissolved substance. Regarding `Cc1ccc(-c2cnc(C3CC3)o2)cc1S(=O)(=O)N[C@H]1CC[C@H](O)CC1`, the EC50 is 99 nM with Hepatitis C virus [1] and 166 nM with Hepatitis C virus [6]. In data set [8], this compound displayed a solubility at 24 h of 220 µM (≈ 82.8 µg/mL). This compound displayed a CC50 at 48 h in data set [3] of more than 31000 nM. Further, the results for the IC50 in data set [5] and in data set [7] were more than 9100 nM and 49 nM, respectively.
For the compound `COc1ccc(-c2oc(C3CC3)nc2C)cc1C(=O)N[C@H]1CC[C@H](O)CC1`, in the data set with Hepatitis C virus [1], a half-maximal effect (EC50) was put at 3560 nM. In addition, in data set [3], the CC50 at 48 h was more than 31000 nM. In data set [7], the IC50 is 9730 nM.
Regarding `COc1ccc(-c2oc(C3CC3)nc2C)cc1S(=O)(=O)N[C@H]1CC[C@H](O)CC1`, the results for the EC50 in the data set on Hepatitis C virus [1], in the data set with Hepatitis C virus [4] and in the data set with Hepatitis C virus [6] were 34 nM, 324 nM and 66 nM, respectively. Besides, the values for the IC50 in data set [2], in data set [5] and in data set [7] were more than 10000 nM, 8200 nM and 19 nM, respectively. The compound further yielded a CC50 at 48 h in data set [3] of more than 31000 nM.
The compound `COc1ccc(-c2oc(-c3ccccc3)nc2C)cc1S(=O)(=O)N[C@H]1CC[C@H](O)CC1` returned an EC50 with Hepatitis C virus [1] of 193 nM. For the same compound, the CC50 at 48 h in data set [3] was more than 31000 nM. Also, in data set [7], the IC50 came out at 37 nM.
The compound `COc1ccc(-c2oc(C3CC3)nc2C)cc1S(N)(=O)=O` yielded an EC50 with Hepatitis C virus [1] of 67 nM. Further, the CC50 at 48 h in data set [3] is more than 31000 nM. Also, in data set [7], the IC50 came to 64 nM.
Taken in the same sequence, the figures for `COc1ccc(-c2oc(C3CC3)nc2C)cc1S(C)(=O)=O` were 120 nM, more than 31000 nM and 76 nM.
For `Cc1ccc(-c2cnc(C3CC3)o2)cc1S(=O)(=O)Nc1ccccc1Cl`, the 50% effective concentration (EC50) worked out at 1020 nM with Hepatitis C virus [1], 1820 nM in the data set on Hepatitis C virus [4] and 1580 nM in the data set on Hepatitis C virus [6]. Besides, the IC50 in data set [2] was more than 10000 nM; in data set [5] it was 2400 nM; in data set [7] it was 135 nM. Also, the solubility at 24 h in data set [8] was less than 2 µM. For the same compound, in data set [3], the CC50 at 48 h was more than 31000 nM.
In the data set with Hepatitis C virus [1], `COc1ccc(-c2oc(C3CC3)nc2C)cc1S(=O)(=O)NCC(C)(C)O` registered an EC50 of 114 nM. The CC50 at 48 h in data set [3] was more than 31000 nM. Further, the IC50 in data set [7] worked out at 33 nM.
Taken in the same sequence, the figures for `COc1ccc(-c2oc(C3CC3)nc2C)cc1S(=O)(=O)NCCO` were 43 nM, more than 31000 nM and 27 nM.
Turning to `COc1ccc(-c2oc(C)nc2C)cc1S(=O)(=O)N[C@H]1CC[C@H](O)CC1`, in the data set with Hepatitis C virus [1], the midpoint of the response, the EC50, lay at 3210 nM. In data set [3], this compound had a CC50 at 48 h of more than 31000 nM. The IC50 in data set [7] was found to be 414 nM.
For the compound `COc1ccc(-c2oc(Cc3ccccc3)nc2C)cc1S(=O)(=O)N[C@H]1CC[C@H](O)CC1`, the EC50 in the data set with Hepatitis C virus [1] was found to be 41 nM; in the data set with Hepatitis C virus [4] it was 383 nM; in the data set on Hepatitis C virus [6], 53 nM. The CC50 at 48 h in data set [3] was more than 31000 nM. Besides, the IC50 in data set [7] worked out at 4 nM.
The compound `COc1ccc(-c2oc(C3CC3)nc2C)cc1` had an EC50 in the data set with Hepatitis C virus [1] of more than 30000 nM. The CC50 at 48 h in data set [3] was more than 31000 nM. In addition, in data set [7], the IC50 is more than 2500 nM.
Regarding `COc1ccc(-c2oc(C3CC3)nc2C)cc1S(=O)(=O)CC1CCC(O)CC1` (centres undefined), the EC50 in the data set on Hepatitis C virus [1] was 67 nM. Also, the CC50 at 48 h in data set [3] was more than 31000 nM. Moreover, the half-inhibitory concentration (IC50) in data set [7] turned out to be 79 nM.
With `COc1ccc(-c2cnc(C3CC3)o2)cc1S(=O)(=O)N[C@H]1CC[C@H](O)CC1`, in the data set with Hepatitis C virus [1], the EC50 was 193 nM. The CC50 at 48 h in data set [3] was more than 31000 nM. Besides, the IC50 in data set [7] turned out to be 37 nM.
The corresponding values for `COc1ccc(-c2[nH]c(C3CC3)nc2C)cc1S(=O)(=O)N[C@H]1CC[C@H](O)CC1` are 9950 nM, more than 31000 nM and 1040 nM.
For the compound `COc1ccc(-c2oc(C3(C)CC3)nc2C)cc1S(=O)(=O)N[C@H]1CC[C@H](O)CC1`, the results for the EC50 in the data set with Hepatitis C virus [1], with Hepatitis C virus [4] and in the data set on Hepatitis C virus [6] were 41 nM, 147 nM and 86 nM, respectively. The compound further gave a CC50 at 48 h in data set [3] of more than 31000 nM. The IC50 in data set [7] stood at 28 nM.
`COc1ccc(-c2oc(C3CC3)nc2C)cc1S(=O)(=O)Nc1cccc(C#N)c1` gave an EC50 in the data set with Hepatitis C virus [1] of less than 30 nM. Besides, the CC50 at 48 h in data set [3] is more than 31000 nM. Further, in data set [7], the IC50 amounted to 11 nM.
Taken in the same sequence, the figures for `COc1ccc(-c2oc(C3CCC(CO)CC3)nc2C)cc1S(=O)(=O)N[C@H]1CC[C@H](O)CC1` (some centres undefined) were 32 nM, more than 31000 nM and 9 nM.
In the data set on Hepatitis C virus [1], `COc1ccc(-c2oc(C3CCCC3)nc2C)cc1S(=O)(=O)N[C@H]1CC[C@H](O)CC1` yielded an EC50 of 30 nM. The same compound gave a CC50 at 48 h in data set [3] of more than 31000 nM. For the same compound, the IC50 in data set [7] was found to be 9 nM.
Compound `COc1ccc(-c2oc(C3CCCCC3)nc2C)cc1S(=O)(=O)N[C@H]1CC[C@H](O)CC1` had an EC50 in the data set with Hepatitis C virus [1] of 108 nM. This compound registered a CC50 at 48 h in data set [3] of more than 31000 nM. For the same compound, in data set [7], the IC50 amounted to 19 nM.
Taken in the same sequence, the figures for `COc1ccc(-c2oc(C3CCOCC3)nc2C)cc1S(=O)(=O)N[C@H]1CC[C@H](O)CC1` were 402 nM, more than 31000 nM and 36 nM.
Taken in the same sequence, the figures for `COc1ccc(-c2cc(C3CC3)nn2C)cc1S(=O)(=O)N[C@H]1CC[C@H](O)CC1` were 356 nM, more than 31000 nM and 54 nM.
Turning to `Cc1cc(-c2cnc(C3CC3)o2)cc(S(=O)(=O)N[C@H]2CC[C@H](O)CC2)c1C`, the values for the EC50 with Hepatitis C virus [1] and in the data set on Hepatitis C virus [6] were 6730 nM and 2100 nM, respectively. The compound further displayed a CC50 at 48 h in data set [3] of more than 31000 nM. The IC50 in data set [7] is more than 2500 nM.
